What follows are compounds tested against T1, Human GPR40 (Homo sapiens (Human), UniProt O14842) (assay: Inositol Phosphate Turnover (IP1) Assay 1, HEK cells stably expressing human GPR40, 3H-inositol SPA). Conditions: HEK cells stably expressing human GPR40, 96-well.
Format: cell-based
Protocol: (§1) Human and mouse GPR40 stable cell-lines were generated in CHO cells stably expressing NFAT BLA (Beta-lactamase). A human GPR40 stable cell-line was generated in HEK cells stably expressing the aequorin expressing reporter. The expression plasmids were transfected using lipofectamine (Life Technologies) following manufacturer's instructions. Stable cell-lines were generated following drug selection.
The assay was performed in 96-well format. HEK cells stably expressing human GPR40 were plated to be 60-80% confluent within 72 h. After 72 h, the plates were aspirated and the cells washed with inositol-free DMEM (ICN). The wash media was replaced with 150 μL of 3H-inositol labeling media (inositol-free media containing 0.4% human albumin or 0.4% mouse albumin, 1× pen/strep antibiotics, glutamine, 25 mM HEPES to which was added 3H-myo-inositol NEN #NET114A 1 mCi/mL, 25 Ci/mmol diluted 1:150 in loading media with a final specific radioactivity of 1 μCi/150 μL). Alternatively, the human and mouse albumin can be added after the overnight labeling step before the addition of LiCl.
The assay was typically run the next day after 18 h labeling. On the day of the assay, 5 μL of 300 mM LiCl was added to all wells and incubated at 37 degrees for 20 min. 0.75 μL of each compound was added and incubated with the cells for 60 min at 37 degrees. The media was then aspirated off and the assay terminated with the addition of 60 μL 10 mM formic acid. The cells were lysed for 60 min at room temperature. 15-30 μL of lysate was mixed with 70 μL/1 mg YSi SPA beads (Amersham) in clear bottom Isoplates. The plates were shaken for 2 h at room temperature. Beads were allowed to settle and the plates were counted in the Wallac Microbeta.

T1 sequence (O14842 whole entry): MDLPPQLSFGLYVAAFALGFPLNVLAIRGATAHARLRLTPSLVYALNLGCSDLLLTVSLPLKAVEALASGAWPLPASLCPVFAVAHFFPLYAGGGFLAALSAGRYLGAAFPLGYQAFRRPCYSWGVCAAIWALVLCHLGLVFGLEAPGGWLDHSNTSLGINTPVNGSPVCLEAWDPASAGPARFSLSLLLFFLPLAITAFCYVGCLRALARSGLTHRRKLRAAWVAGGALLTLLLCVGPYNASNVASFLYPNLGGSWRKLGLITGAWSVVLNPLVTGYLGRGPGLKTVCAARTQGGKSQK

Structure (SMILES) | EC50 [nM]
O=C(O)C[C@H](c1cccc(OC2CC3(CCN(Cc4cc(C(F)(F)F)ccc4C(F)(F)F)C3)C2)c1)C1CC1 (single isomer, unassigned) [Example 5A] | 4150
O=C(O)C[C@H](c1cccc(OC2CC3(CCN(Cc4cc(C(F)(F)F)ccc4C(F)(F)F)C3)C2)c1)C1CC1 (single isomer, unassigned) [Example 5B] | 2140
COc1cccc(C2CC2COc2cccc([C@@H](CC(=O)O)C3CC3)c2)c1 (single isomer, unassigned) [Example 63, (3 S)-3-cyclopropyl-3-(3-((2-(3-methoxyphenyl)cyclopropyl)methoxy)phenyl)propanoic acid] | 348
O=C(O)C[C@H](c1cccc(OCCC2CCN(Cc3cc(C(F)(F)F)ccc3C(F)(F)F)C2)c1)C1CC1 (stereo partly drawn) [Example 2, (3S)-3-(3-(2-(1-(2,5-Bis(trifluoromethyl)benzyl)pyrrolidin-3-yl)ethoxy)phenyl)-3-cyclopropylpropanoic acid] | 1830
C[C@H](C(=O)O)[C@H](c1cccc(OCC2CC(Oc3ccc(OC(F)F)nc3)C2)c1)C1CC1 (stereo partly drawn) [Example 95] | 1390
COc1ncc(OC2CC(COc3cccc([C@H](C4CC4)[C@H](C)C(=O)O)c3)C2)cn1 (stereo partly drawn) [Example 96] | 8230
Cc1cc(OC2CC(COc3cccc([C@H](C4CC4)[C@H](C)C(=O)O)c3)C2)n(C)n1 (stereo partly drawn) [Example 97] | 7240
Cc1c(OC2CC(COc3cccc([C@H](C4CC4)[C@H](C)C(=O)O)c3)C2)nn(C)c1C(F)(F)F (stereo partly drawn) [Example 100] | 560
C[C@H](C(=O)O)[C@H](c1cccc(OCC2CC(Oc3ccnn3C)C2)c1)C1CC1 (stereo partly drawn) [Example 101] | 7220
C[C@H](C(=O)O)[C@H](c1cccc(OCC2CC(Oc3ccccn3)C2)c1)C1CC1 (stereo partly drawn) [Example 102] | 643
C[C@H](C(=O)O)[C@H](c1cccc(OCC2CC(Oc3cccnc3)C2)c1)C1CC1 (stereo partly drawn) [Example 109] | 7190
C[C@H](C(=O)O)[C@H](c1cccc(OCC2CC(Oc3cccnc3)C2)c1)C1CC1 (stereo partly drawn) [Example 110] | 1960
C[C@H](C(=O)O)[C@H](c1cccc(OCC2CC(Oc3ccnc4c3OCCO4)C2)c1)C1CC1 (stereo partly drawn) [Example 111] | 3100
CCOc1ccc(OC2CC(COc3cccc([C@H](C4CC4)[C@H](C)C(=O)O)c3)C2)cc1 (stereo partly drawn) [Example 113] | 1210
COc1ccc(OC2CC(COc3cccc([C@H](C4CC4)[C@H](C)C(=O)O)c3)C2)cc1 (stereo partly drawn) [Example 124] | 577
COc1ccc(OC2CC(COc3cccc([C@H](C4CC4)[C@H](C)C(=O)O)c3)C2)cc1 (stereo partly drawn) [Example 125] | 565
C[C@H](C(=O)O)[C@H](c1cccc(OC[C@H]2C[C@@H]2c2ccc(F)c(C(F)(F)F)c2)c1)C1CC1 [Example 144] | 385
C[C@H](C(=O)O)[C@H](c1cccc(OC[C@H]2C[C@@H]2c2cccnc2)c1)C1CC1 [Example 147] | 4440
COc1ncc([C@H]2C[C@@H]2COc2cccc([C@H](C3CC3)[C@H](C)C(=O)O)c2)cc1F [Example 149] | 802
COc1cncc([C@H]2C[C@@H]2COc2cccc([C@H](C3CC3)[C@H](C)C(=O)O)c2)c1 [Example 150] | 4470
COc1cc(F)c([C@H]2C[C@@H]2COc2cccc([C@H](C3CC3)[C@H](C)C(=O)O)c2)cc1F [Example 153] | 325
COc1ccc([C@H]2C[C@@H]2COc2cccc([C@H](C3CC3)[C@H](C)C(=O)O)c2)c(F)c1 [Example 154] | 544
C[C@H](C(=O)O)[C@H](c1cccc(OC[C@H]2C[C@@H]2c2ccc(Cl)c(C(F)(F)F)c2)c1)C1CC1 [Example 156] | 355
COc1ccc([C@H]2C[C@@H]2COc2cccc([C@H](C3CC3)[C@H](C)C(=O)O)c2)cc1 [Example 159] | 472

The next lines start with the values.

EC50 [nM] | Structure (SMILES)
166 | COc1cccc(C2CC2COc2cccc([C@@H](CC(=O)O)C3CC3)c2)c1 (single isomer, unassigned) [Example 62, (3 S)-3-cyclopropyl-3-(3-((2-(3-methoxyphenyl)cyclopropyl)methoxy)phenyl)propanoic acid]
89 | C[C@H](C(=O)O)[C@H](c1cccc(O[C@H]2CCCN(Cc3cc(C(F)(F)F)ccc3C(F)(F)F)C2)c1)C1CC1 [Example 1, (2S,3R)-3-(3-(((S)-1-(2,5-bis(trifluoromethyl)benzyl)piperidin-3-yl)oxy)phenyl)-3-cyclopropyl-2-methylpropanoic acid]
181 | COc1cc(OC2CC(COc3cccc([C@H](C4CC4)[C@H](C)C(=O)O)c3)C2)ccn1 (stereo partly drawn) [Example 93]
110 | C[C@H](C(=O)O)[C@H](c1cccc(OCC2CC(Oc3ccccc3F)C2)c1)C1CC1 (stereo partly drawn) [Example 94]
187 | C[C@H](C(=O)O)[C@H](c1cccc(OCC2CC(Oc3ccccn3)C2)c1)C1CC1 (stereo partly drawn) [Example 103]
54 | COc1cc(OC2CC(COc3cccc([C@H](C4CC4)[C@H](C)C(=O)O)c3)C2)c(F)cn1 (stereo partly drawn) [Example 106]
109 | CCOc1ccccc1OC1CC(COc2cccc([C@H](C3CC3)[C@H](C)C(=O)O)c2)C1 (stereo partly drawn) [Example 112]
107 | C[C@H](C(=O)O)[C@H](c1cccc(OCC2CC(Oc3c(F)cccc3F)C2)c1)C1CC1 (stereo partly drawn) [Example 114]
110 | C[C@H](C(=O)O)[C@H](c1cccc(OCC2CC(Oc3cc(F)ccc3F)C2)c1)C1CC1 (stereo partly drawn) [Example 115]
72 | COc1ccccc1OC1CC(COc2cccc([C@H](C3CC3)[C@H](C)C(=O)O)c2)C1 (stereo partly drawn) [Example 128]
119 | CCOc1cccc(OC2CC(COc3cccc([C@H](C4CC4)[C@H](C)C(=O)O)c3)C2)c1 (stereo partly drawn) [Example 131]
150 | C[C@H](C(=O)O)[C@H](c1cccc(OCC2CC(Oc3ccccc3-c3ccccc3)C2)c1)C1CC1 (stereo partly drawn) [Example 132]
307 | C[C@H](C(=O)O)[C@H](c1cccc(OCC2CC(Oc3cccc4c3OC(C)(C)C4)C2)c1)C1CC1 (stereo partly drawn) [Example 135]
262 | C[C@H](C(=O)O)[C@H](c1cccc(OCC2CC(Oc3cccc(C(F)(F)F)c3)C2)c1)C1CC1 (stereo partly drawn) [Example 136]
176 | C[C@H](C(=O)O)[C@H](c1cccc(OC[C@H]2C[C@@H]2c2cccc(OC(F)(F)F)c2)c1)C1CC1 [Example 137]
74 | C[C@H](C(=O)O)[C@H](c1cccc(OC[C@H]2C[C@@H]2c2cccc(OC3CC3)c2)c1)C1CC1 [Example 138]
188 | COc1ccc(OC)c([C@H]2C[C@@H]2COc2cccc([C@H](C3CC3)[C@H](C)C(=O)O)c2)c1 [Example 139]
225 | COc1cccc([C@H]2C[C@@H]2COc2cccc([C@H](C3CC3)[C@H](C)C(=O)O)c2)c1F [Example 140]
109 | COc1cc(F)cc([C@H]2C[C@@H]2COc2cccc([C@H](C3CC3)[C@H](C)C(=O)O)c2)c1 [Example 141]
78 | COc1ccc(F)c([C@H]2C[C@@H]2COc2cccc([C@H](C3CC3)[C@H](C)C(=O)O)c2)c1F [Example 142]
175 | C[C@H](C(=O)O)[C@H](c1cccc(OC[C@H]2C[C@@H]2c2cc(C(F)(F)F)ccc2Cl)c1)C1CC1 [Example 143]
223 | C[C@H](C(=O)O)[C@H](c1cccc(OC[C@H]2C[C@@H]2c2cc(OC(F)(F)F)ccc2F)c1)C1CC1 [Example 145]
111 | C[C@H](C(=O)O)[C@H](c1cccc(OC[C@H]2C[C@@H]2c2cc(OC(F)(F)F)ccc2Cl)c1)C1CC1 [Example 146]
90 | C[C@H](C(=O)O)[C@H](c1cccc(OC[C@H]2C[C@@H]2c2cc(F)ccc2F)c1)C1CC1 [Example 151]
89 | C[C@H](C(=O)O)[C@H](c1cccc(OC[C@H]2C[C@@H]2c2cc(Cl)ccc2F)c1)C1CC1 [Example 152]
316 | C[C@H](C(=O)O)[C@H](c1cccc(OC[C@H]2C[C@@H]2c2cc(C(F)(F)F)ccc2C(F)(F)F)c1)C1CC1 [Example 155]
130 | C[C@H](C(=O)O)[C@H](c1cccc(OC[C@H]2C[C@@H]2c2cc(C(F)(F)F)ccc2F)c1)C1CC1 [Example 157]
26 | COc1ccc(Cl)c([C@H]2C[C@@H]2COc2cccc([C@H](C3CC3)[C@H](C)C(=O)O)c2)c1 [Example 158]

What follows are compounds tested against T1, Human GPR40 (assay: FLIPR assay, agonist-induced calcium mobilization in GPR40/CHO NFAT BLA cells). Conditions: not given.
Format: cell-based
Protocol: as §1
FLIPR (Fluorimetric Imaging Plate Reader, Molecular Devices) assays were performed to measure agonist-induced calcium mobilization of the stable clones. For the FLIPR assay, one day before assay, GPR40/CHO NFAT BLA cells were seeded into black-wall-clear-bottom 384-well plates (Costar) at 1.4×10e4 cells/20 μL medium/well. The cells were incubated with 20 μl/well of the assay buffer (HBSS, 0.1% BSA, 20 mM HEPES, 2.5 mM probenecid, pH 7.4) containing 8 μM fluo-4, AM, 0.08% pluronic acid at room temperature for 100 minutes. Fluorescence output was measured using FLIPR. Compounds were dissolved in DMSO and diluted to desired concentrations with assay buffer. 13.3 μL/well of compound solution was added.

Structure (SMILES) | EC50 [nM]
O=C(O)C[C@H](c1cccc(OC2CC3(CCN(Cc4cc(C(F)(F)F)ccc4C(F)(F)F)C3)C2)c1)C1CC1 (single isomer, unassigned) [Example 5A] | 455
O=C(O)C[C@H](c1cccc(OC2CC3(CCN(Cc4cc(C(F)(F)F)ccc4C(F)(F)F)C3)C2)c1)C1CC1 (single isomer, unassigned) [Example 5B] | 113
COc1cccc(C2CC2COc2cccc([C@@H](CC(=O)O)C3CC3)c2)c1 (single isomer, unassigned) [Example 63, (3 S)-3-cyclopropyl-3-(3-((2-(3-methoxyphenyl)cyclopropyl)methoxy)phenyl)propanoic acid] | 15
O=C(O)C[C@H](c1cccc(OCCC2CCN(Cc3cc(C(F)(F)F)ccc3C(F)(F)F)C2)c1)C1CC1 (stereo partly drawn) [Example 2, (3S)-3-(3-(2-(1-(2,5-Bis(trifluoromethyl)benzyl)pyrrolidin-3-yl)ethoxy)phenyl)-3-cyclopropylpropanoic acid] | 173
O=C(O)C[C@H](c1cccc(OC2CCN(Cc3cccc(C(F)(F)F)c3)C2)c1)C1CC1 (stereo partly drawn) [Example 45] | 387
CC(c1cc(F)ccc1F)N1CC(COc2cccc([C@@H](CC(=O)O)C3CC3)c2)C1 (stereo partly drawn) [Example 57] | 480

Results, then the compound that gave them:

EC50 [nM] | Structure (SMILES)
5.7 | COc1cccc(C2CC2COc2cccc([C@@H](CC(=O)O)C3CC3)c2)c1 (single isomer, unassigned) [Example 62, (3 S)-3-cyclopropyl-3-(3-((2-(3-methoxyphenyl)cyclopropyl)methoxy)phenyl)propanoic acid]
1.9 | C[C@H](C(=O)O)[C@H](c1cccc(O[C@H]2CCCN(Cc3cc(C(F)(F)F)ccc3C(F)(F)F)C2)c1)C1CC1 [Example 1, (2S,3R)-3-(3-(((S)-1-(2,5-bis(trifluoromethyl)benzyl)piperidin-3-yl)oxy)phenyl)-3-cyclopropyl-2-methylpropanoic acid]

— patent US10059667B2, “Antidiabetic compounds” (MERCK SHARP & DOHME CORP., priority 2014, dated 2018)
